# Reference: ChEMBL document CHEMBL2413002, “A convenient synthesis of lubeluzole and its enantiomer: evaluation as chemosensitizing agents on human ovarian adenocarcinoma and lung carcinoma cells” (Bioorg Med Chem Lett, 2013)
# Key:
# [1] = test system: A2780; test: Cytotoxicity against human A2780 cells after 72 hrs by MTT assay; format: functional, cell-based; details: A2780, 72 h
# [2] = test system: A549; test: Cytotoxicity against human A549 cells after 72 hrs by MTT assay; format: functional, cell-based; details: A549, 72 h
# [3] = test system: A549; test: Antiproliferative activity against human A549 cells at 0.005 uM after 72 hrs by MTT assay; format: functional; details: A549, 72 h
# [4] = test system: A2780; test: Antiproliferative activity against human A2780 cells at 0.005 uM after 72 hrs by MTT assay; format: functional; details: A2780, 72 h
SMILES,IC50 [1],IC50 [2],inhibition at 0.005 µM [3],inhibition at 0.005 µM [4]
CN(c1nc2ccccc2s1)C1CCN(C[C@@H](O)COc2ccc(F)c(F)c2)CC1,14 µM,18 µM,,
COc1cccc2c1C(=O)c1c(O)c3c(c(O)c1C2=O)C[C@@](O)(C(=O)CO)C[C@@H]3O[C@H]1C[C@H](N)[C@H](O)[C@H](C)O1 [DOXORUBICIN],0.023 µM,,,
CN(c1nc2ccccc2s1)C1CCN(C[C@H](O)COc2ccc(F)c(F)c2)CC1 [LUBELUZOLE],5.7 µM,14 µM,5.2%,4.3%
CC(=O)O[C@H]1C(=O)[C@@]2(C)[C@H]([C@H](OC(=O)c3ccccc3)[C@]3(O)C[C@H](OC(=O)[C@H](O)[C@@H](NC(=O)c4ccccc4)c4ccccc4)C(C)=C1C3(C)C)[C@]1(OC(C)=O)CO[C@@H]1C[C@@H]2O [PACLITAXEL],,0.014 µM,,
